Results reported in patent publication US10004754B2, “ANP fragment adjuvant therapy to standard of care (SOC) diuretic treatment” (MADELEINE PHARMACEUTICALS PTY LTD, priority 2014, dated 2018).
Read-outs that look alike come from different tables or passages of the source. Where no end group is shown, it is not given here.

What was measured:
stable CHF patients [1] = assay: Urine output and fractional excretion of sodium with sc VSDL infusion, Example 2; type: in vivo, human
Description: (§1) A second study was conducted with a population of eighteen (18) test adult CHF patients, both male and female, in order to further evaluate the improvement in renal and cardiac function in stable CHF patients given VSDL (by sc administration) in addition to standard of care (SOC) treatment.
(§2) Participants were selected on the basis of the Inclusion and Exclusion criteria given in Example 1. […] In addition, selected patients were required to have a plasma brain natriuretic peptide (BNP) concentration of ≥100 pg/mL and a GFR ≥25 mL/min and <70 mL/min as calculated by the Cockroft Gault calculation (ie moderate renal impairment). On the other hand, the presence of acute MI (ie as indicated by ST elevation and/or elevation of Troponin-T) or evidence of MI or other high risk acute coronary syndrome within the past 6 weeks, hypotension (ie systolic blood pressure (SBP) <90 mmHg), persistent and/or uncontrolled hypertension (SBP>180 mmHg), cardiogenic shock or any other clinical condition that would contraindicate administration of an agent with potent vasodilatory effects, excluded patients from participating in the study. Participants in this study also had standard exclusion criteria that accompany pulmonary artery (SG) catheterisation.
(§3) The study was an open-label, sequential group, continuous sc infusion study conducted at a single centre. Two steady-state concentration levels (Css) of VSDL were targeted, approximately 10 ng/mL (n=2 lead-in, and n=10, cohort 1) and 20 ng/mL (n=6, cohort 2). The two lead-in patients were treated with similar dose regimens to confirm that the measured plasma concentrations were in agreement with the targeted Css. Two patients from cohort 1 and all 6 patients from cohort 2 underwent pulmonary artery Swan-Ganz (SG) catheterisation to enable haemodynamic monitoring.
(§4) VSDL prepared as described in Example 1, was administered via sc 6 or 12 hour infusion into the lower abdomen at a maximum volume rate of 350 μL/hr (ie approximately 6 μL/min). The rate of infusion of VSDL for the targeted Css level of 10 ng/mL was either 900 μg/hr (0.3 mL/hr) for 12 hrs or a bimodal infusion of 900 μg/hr for 5 hrs followed by 550 μg/hr (0.18 mL/hr) for 7 hrs. The rate of infusion of VSDL for the targeted Css level of 20 ng/mL was bimodal; 1800 μg/hr (0.20 mL/hr) for 5 hrs followed by 1100 μg/hr (0.12 mL/hr) for 7 hrs (see WO 2014/138796). For the lead-in patients, the infusions were performed at 900 μg/hr for 6 hrs.
(§5) R Studio (version 4) and GraphPad Prism (GraphPad Software, version 6) were used for all statistical analyses. Statistically significant changes from base line for all parameters were tested using with linear mixed effects model or one-way repeated measures ANOVA with Bonferroni correction. A p value of 0.05 was set for statistically significant differences. All data are reported as mean±s.d or mean (95% CI).

[2] = tested on: patients showing either acute exacerbations of chronic CHF or ADCHF; details: cited from earlier work
clinical = assay: clinical; design: species or system human; details: in vivo
stable CHF patients [3] = assay: Blood pressure during and after continuous sc VSDL infusion, Example 2; type: in vivo, human; details: for average drop in blood pressure, diastolic / average drop in blood pressure, systolic: during the 24 hour time period; for mean drop in blood pressure, diastolic / mean drop in blood pressure, systolic: throughout the 12 hour infusion period
Description: as §1, §2, §3, §4, §5

stable CHF patients [4] = type: in vivo, human; details: for Diastolic Blood Pressure: baseline 65 ± 10; for Diastolic Blood Pressure / Systolic Blood Pressure: with SOC; for Systolic Blood Pressure: baseline 119 ± 15
Description: VSDL in the form of a white lyophilised powder (synthesised using standard protein synthesis method by Auspep Pty Ltd, Parkville, VIC, Australia), stored in an ultra-low freezer (−80° C.), was reconstituted in a vial with 10 ml of 0.9% saline (preservative free) and aseptically transferred into a 20 ml syringe (that connects to a cannula) before use.
A first study was conducted with a cohort of eight (8) test adult patients, both male and female, with a history of stable, chronic congestive heart failure and moderate renal impairment that had been selected on the basis of the following Inclusion and Exclusion criteria:
All patients underwent existing standard of care (SOC) treatment for the condition for which they presented. These treatments were diuretic therapy (ie administration with furosemide or spironolactone) and an antihypertensive drug(s) (eg an Angiotensin Converting Enzyme (ACE) inhibitor, beta blocker agent and calcium channel blocker agent). […]

[5] = lead-in patients, 900 μg/hr sc for 6 hours, up to 24 hours post infusion
[6] = patients with baseline blood pressures ≤105/60 mmHg, during the infusion

Sequence: EVVPPQVLSEPNEEAGAALSPLPEVPPWTGEVSPAQR [VSDL]
- mean urine output (stable CHF patients [1]; 10 ng/ml cohort): 2898 ± 334 mL
- FENa (fractional excretion of sodium) (stable CHF patients [1]; 10 ng/ml cohort, during infusion, baseline 2.2±0.3%, not statistically significant): 3.3±0.8%
- FENa (fractional excretion of sodium) (stable CHF patients [1]; 10 ng/ml cohort, post infusion, baseline 2.2±0.3%): 2.3±0.3%
- mean urine output (stable CHF patients [1]; 20 ng/ml cohort): 3028 ± 301 mL
- FENa (fractional excretion of sodium) (stable CHF patients [1]; 20 ng/ml cohort, during infusion, baseline 1.6±0.3%): 2.4±0.8%
- FENa (fractional excretion of sodium) (stable CHF patients [1]; 20 ng/ml cohort, post infusion, baseline 1.6±0.3%): 1.6±0.4%
- fluid output (urine volumes from baseline) (stable CHF patients [1]; patients treated with VSDL plus SOC): increased
- patients with urine volumes above 3 liters/day (stable CHF patients [1]; pooled 10 and 20 ng/ml patients, FIG. 2): more than 50%
- side-effects ([2]; in vivo, iv): without side-effects
- outcomes (eg increased cardiac index, drops in pulmonary capillary wedge pressure and blood pressure) ([2]; iv infusion, even with very low doses, WO 2012/019237): improved outcomes
- bioavailability (clinical; both sexes, human, sc): 19.2%
- CL Maximum Elimination rate, Pop value (clinical; human, sc): 26.8 L/h
- F Bioavailability, Pop value (clinical; human, sc): 26.894%
- ETASHARE Random effect scalinmg factor, Pop value (clinical): 1.000 ratio
- RUVADDIV Residual Error (Additive, I.V.), Pop value (clinical; iv): 0.248 ng/mL
- RUVCVIV Residual Error (Proportional, I.V.), Pop value (clinical; iv): 0.336 ratio
- FVOL Infused volume on F, Pop value (clinical; sc): 1.590 ratio
- KA Absorption rate constant, Pop value (clinical; sc): 0.625 h⁻¹
- LGT Logit F value, Pop value (clinical; sc): −1.00
- RUVADDSC Residual Error (Additive, S.C.), Pop value (clinical; sc): 0.070 ng/mL
- RUVCVSC Residual Error (Proportional, S.C.), Pop value (clinical; sc): 0.259 Ratio
- V2 S.C. bolus V scaling factor, Pop value (clinical; sc): 1.62 ratio
- V3 S.C. infusion V scaling factor, Pop value (clinical; sc): 3.65 ratio
- V Central volume, Pop value (clinical; sc): 13.20 L
- Diastolic Blood Pressure (stable CHF patients [3]; 10 ng/ml cohort, 0.5-6 hs, baseline 61 ± 8): 64 ± 8 mmHg
- Systolic Blood Pressure (stable CHF patients [3]; 10 ng/ml cohort, 0.5-6 hs, baseline 116 ± 10): 121 ± 11 mmHg
- Diastolic Blood Pressure (stable CHF patients [3]; 10 ng/ml cohort, >6-12 hs, baseline 61 ± 8): 65 ± 7 mmHg
- Systolic Blood Pressure (stable CHF patients [3]; 10 ng/ml cohort, >6-12 hs, baseline 116 ± 10): 125 ± 10 mmHg
- Diastolic Blood Pressure (stable CHF patients [3]; 10 ng/ml cohort, >12-24 hs, baseline 61 ± 8): 62 ± 7 mmHg
- Systolic Blood Pressure (stable CHF patients [3]; 10 ng/ml cohort, >12-24 hs, baseline 116 ± 10): 118 ± 10 mmHg
- average drop in blood pressure, diastolic (stable CHF patients [3]; 10 ng/ml cohort): −5 mmHg
- average drop in blood pressure, systolic (stable CHF patients [3]; 10 ng/ml cohort): −8 mmHg
- mean drop in blood pressure, diastolic (stable CHF patients [3]; 10 ng/ml cohort): −6 mmHg
- mean drop in blood pressure, systolic (stable CHF patients [3]; 10 ng/ml cohort): −8 mmHg
- Diastolic Blood Pressure (stable CHF patients [3]; 20 ng/ml cohort, 0.5-6 hs, baseline 71 ± 12): 66 ± 6 mmHg
- Systolic Blood Pressure (stable CHF patients [3]; 20 ng/ml cohort, 0.5-6 hs, baseline 124 ± 21): 116 ± 17 mmHg
- Diastolic Blood Pressure (stable CHF patients [3]; 20 ng/ml cohort, >6-12 hs, baseline 71 ± 12): 67 ± 6 mmHg
- Systolic Blood Pressure (stable CHF patients [3]; 20 ng/ml cohort, >6-12 hs, baseline 124 ± 21): 118 ± 20 mmHg
- Diastolic Blood Pressure (stable CHF patients [3]; 20 ng/ml cohort, >12-24 hs, baseline 71 ± 12): 64 ± 6 mmHg
- Systolic Blood Pressure (stable CHF patients [3]; 20 ng/ml cohort, >12-24 hs, baseline 124 ± 21): 116 ± 21 mmHg
- average drop in blood pressure, diastolic (stable CHF patients [3]; 20 ng/ml cohort): −8 mmHg
- average drop in blood pressure, systolic (stable CHF patients [3]; 20 ng/ml cohort): −13 mmHg
- mean drop in blood pressure, diastolic (stable CHF patients [3]; 20 ng/ml cohort): −7 mmHg
- mean drop in blood pressure, systolic (stable CHF patients [3]; 20 ng/ml cohort): −14 mmHg
- drops in mean blood pressures from baseline, based on post infusion time (stable CHF patients [3]; all VSDL-treated patients, p=0.4): no significant drops
- systolic and diastolic blood pressures, regression on concentration of VSDL (stable CHF patients [3]; at higher VSDL concentrations, p=0.005, FIGS. 5A and B): significant decrease
- change in blood pressure (stable CHF patients [3]; lead-in patients, 900 μg/hr sc for 6 hours): no significant change
- mean diastolic blood pressure (stable CHF patients [3]; [5]): 66±3 mmHg
- mean systolic blood pressure (stable CHF patients [3]; [5]): 114±6 mmHg
- Diastolic Blood Pressure (stable CHF patients [3]; patients with BP ≤ 105 mmHg, 0.5-6 hs, baseline 57 ± 6): 61 ± 7 mmHg
- Systolic Blood Pressure (stable CHF patients [3]; patients with BP ≤ 105 mmHg, 0.5-6 hs, baseline 97 ± 8): 106 ± 17 mmHg
- Diastolic Blood Pressure (stable CHF patients [3]; patients with BP ≤ 105 mmHg, >6-12 hs, baseline 57 ± 6): 64 ± 8 mmHg
- Systolic Blood Pressure (stable CHF patients [3]; patients with BP ≤ 105 mmHg, >6-12 hs, baseline 97 ± 8): 113 ± 25 mmHg
- Diastolic Blood Pressure (stable CHF patients [3]; patients with BP ≤ 105 mmHg, >12-24 hs, baseline 57 ± 6): 62 ± 6 mmHg
- Systolic Blood Pressure (stable CHF patients [3]; patients with BP ≤ 105 mmHg, >12-24 hs, baseline 97 ± 8): 109 ± 20 mmHg
- drop in blood pressures (stable CHF patients [3]; patients with baseline blood pressures ≤105/60 mmHg): no significant drop
- average blood pressure drop, diastolic (stable CHF patients [3]; [6]): −3 mmHg
- average blood pressure drop, systolic (stable CHF patients [3]; [6]): −4 mmHg
- Diastolic Blood Pressure (stable CHF patients [4]; 10 ng/kg column): 64 ± 7 mmHg
- Systolic Blood Pressure (stable CHF patients [4]; 10 ng/kg column): 122 ± 10 mmHg
- Diastolic Blood Pressure (stable CHF patients [4]; 20 ng/kg column): 65 ± 6 mmHg
- Systolic Blood Pressure (stable CHF patients [4]; 20 ng/kg column): 115 ± 19 mmHg
- symptomatic hypotension (stable CHF patients [4]; human, in vivo, sc): none of these resulted in symptomatic hypotension
- change in systolic and diastolic blood pressures (stable CHF patients [4]; stable CHF patients, sc bolus VSDL with SOC, p < 0.05): significant drop
